Molecules are shown by their SMILES.

Data set [1] concerns Hepa1–6-Per2-luc hepatocarcinoma tumours. Put plainly: Antitumour efficacy in Hepa1–6-bearing nude mice (Experiments 1 and 2). It counts as in vivo, CD1-Foxn1^nu mice. How it is done:
(§1) Male CD1-Foxn1^nu or C57Bl/6 (B6) mice aged 5–10 weeks (Janvier, Le Genest St Isle, France) were housed in groups of three to four mice per cage in temperature-controlled (23 ± 1°C), ventilated (100 ± 10 l/min), and light-tight chronobiological animal facilities (Eurobioconcept, Bonneuil s/Marne, France). They were synchronized with an alternation of 12 h of light (L) and 12 h of darkness (D) (LD12:12), with light starting at 07:00, and had ad libitum access to food and water throughout all the experiments. In line with convention, onset of light and that of darkness are referred to as Zeitgeber time 0 (ZT0) and ZT12, respectively. After one or more weeks on this regimen and on the day prior to tumour inoculation, both flanks of each B6 mouse were shaved using clippers.
Mouse hepatocarcinoma (Hepa1–6, ATCC® CRL-1830™) was kindly provided by S. Dulong (INSERM U935, Villejuif, France), following their stable transfection with the Per2-luc [pLV7-Bsd-P(Per2)-dLuc] reporter constructs within the C5SYS ERASYSBIO+ project (FP7). Mouse Hepa1–6-Per2-luc cells were cultured in 15-cm Petri dishes until they reached 80% confluency. On the day of tumour inoculation, the cells were trypsinized and resuspended at a concentration of 10^6 cells/100 µl in PBS solution alone (Experiments 1 and 2) or with 1:1 MatriGel™ (Corning, Flintshire, UK) (Experiments 3–5) and kept on ice until injected.
(§2) The mice, aged 8–10 weeks, were anesthetized under isoflurane and Hepa1–6-Per2-luc cells were injected subcutaneously in both postero-lateral flanks of each mouse. Mice were then inspected and weighed daily until experiment completion. Tumour sites were inspected daily until tumours became palpable and amenable to daily measurements of perpendicular diameters using callipers. Measurements were always taken at the same circadian time.
(§3) Mean daily tumour weight per mouse was calculated as the average volume of the right and left flank tumours according to (L × W^2)/2, where L is the larger and W the smaller perpendicular diameter, and 1 cm^3 corresponds to 1 g. Mice with an estimated tumour weight exceeding 10% of their body weight or those in poor general condition or loosing >15% of their starting body weight were euthanized, in compliance with our Home Office Project Licence specifications approved by the Animals in Science Committee and Animal Welfare and Ethical Review Body.
Experiment 1 aimed at the determination of a therapeutic dose of the less soluble FY26⋅PF6 formulation. Hepa1–6-bearing nude mice were randomly assigned to be injected intraperitoneally (ip) with vehicle (controls), or 40, 60, or 80 mg/kg/injection of FY26⋅PF6 at ZT6 (in the middle of the light span) every other day for 12 days (Table 1).
Experiment 2 aimed at assessing whether FY26⋅PF6 circadian timing would influence toxicity or efficacy in the nude mouse model. The animals were randomly assigned to receive ip vehicle or FY26⋅PF6 (50 mg/kg/injection) at ZT6 or at ZT18 (four controls and six treated mice per ZT) every other day for 11 days (six injections; cumulative dose, 300 mg/kg). […]
(§4) Body weight data were expressed as % body weight measured on the first treatment day. Tumour weights for individually treated mice were expressed as % of the median control values, in order to determine % inhibition. […]

Data set [2] in a line: Comparative maximum aqueous solubility study (ICP-OES). Format: physicochemical. The conditions noted are these: doubly deionized water, 24 h shaking, ambient 18–20°C, mean ± SD of N = 3. How it is done:
One to five milligrams of FY26⋅PF6 or FY26⋅I, and 180 mg of FY26⋅Cl were dispensed into Falcon tubes in triplicates, then 1 ml of doubly deionized water (DDIW) was added. The Falcon tubes were placed on a Vibrax VXB basic shaker (Sigma-Aldrich, Dorset, UK) for 24 h at a speed of […] (ambient temperature 18–20°C), and were checked at intervals (further solids were added if total saturation appeared to occur). The samples were filtered through syringe filters (PTFE, 0.45 µm, 4 mm) to remove any undissolved solids. The concentrations of Os in the solutions were measured using inductively coupled plasma-optical emission spectroscopy (ICP-OES) (Agilent, Stockport, UK).
Analyses of FY26 solutions were carried out on a Perkin-Elmer (optical emission spectrometer) Optima 5300 DV instrument. All samples and standards were prepared fresh on the day in DDIW with distilled HNO3 (3.2%), thiourea (5 mM), and ascorbic acid (0.1 g/l). The osmium standard was diluted to the following concentrations for the calibration curve: 0, 25, 50, 100, 200, 400, 600, 800, and 1000 ppb. The samples were diluted by serial dilutions of typically 1 in 10 until their concentrations fitted within the calibration range and % total dissolved solids were below 0.2%. Samples were prepared in triplicates and the Os optical emissions at 228.226 and 225.585 nm were detected and integrated.

For the next data set, the system named is A2780 cells. Also noted: method as in PMID 26162681. The conditions noted are these: previously reported ref 18; cited from earlier work.
Data set [3] in a line: Tolerability in Hepa1–6-bearing nude mice (Experiments 1 and 2). Format: in vivo, CD1-Foxn1^nu mice. As to the method: as §1, §2, §3
Experiment 1 aimed at the determination of a therapeutic dose of the less soluble FY26⋅PF6 formulation. […]
as §4

Data set [4] relates to 809 cancer cell line screen. Also noted: method as in PMID 26162681. The following applies: on average, 809 cancer cell lines ref 18; cited from earlier work.
Another data set relates to Hepa1–6 cells. Further details: method as in ref 21, 22 = [21]; 21. Abraham K. , Dallmann R. , Ballesta A. , Romero-Canelon I. , Sadler P. J. , Lévi F. A. , In v itro circadian synchronisation of mouse hepatocarcinoma cells with 24 h temperature cycles uncovers in || [22]; 22. Abraham K. , In vitro and in vivo chronopharmacology of a new generation of an organometallic anticancer drug complex . Ph.D. thesis , University of Warwick , Coventry, UK , 2018 . The conditions noted are these: Hepa1–6 cells synchronized with a 24-h periodic temperature cycle ref 21, 22; cited from earlier work.

Data set [5] concerns A2780 ovarian cancer cells over MRC-5 fibroblasts. Also noted: method as in PMID 26397305. The conditions noted are these: applied synergistically with L-buthionine sulfoximine (L-BSO) ref 19; cited from earlier work.
Data set [6] has as its system HCT-116 human colon cancer xenografts. Also noted: method as in ref 13 = [13]; 13. Shnyder S. D. , Fu Y. , Habtemariam A. , van Rijt S. H. , Cooper P. A. , Loadman P. M. , Sadler P. J. , Anti-colorectal cancer activity of an organometallic osmium arene azopyridine complex , Med. The conditions noted are these: HCT-116 xenografts in mice ref 13; cited from earlier work.

On the set-up of data set [7]: method as in ref 22 = [22]; 22. Abraham K. , In vitro and in vivo chronopharmacology of a new generation of an organometallic anticancer drug complex . Ph.D. thesis , University of Warwick , Coventry, UK , 2018 . The conditions noted are these: mice ref 22; cited from earlier work.
A short description of data set [8]: Body weight change after a single ip dose (Experiment 5). Format: in vivo, C57Bl/6 mice. The following applies: single ip dose 5, 10 or 20 mg/kg (FY26⋅Cl), 24 and 48 h, all mice. How it is done: Experiment 5 determined FY26⋅Cl uptake in mouse tumour and liver. Hepa1–6-bearing mice were randomly assigned to either treatment or control groups. They received a single ip injection of 5, 10, or 20 mg/kg of FY26⋅Cl or 0.1 M PBS (vehicle) at ZT6 (Table 1). The mice from pre-set subgroups were culled at 6, 24, or 48 h after injection. The subcutaneous tumours in both flanks, as well as liver, spleen, one kidney, an ileum, and a colon segment and brain were sampled and stored at −80°C.
(§5) Body weight data were expressed as % body weight measured on the first treatment day. Tumour weights for individually treated mice were expressed as % of the median control values, in order to determine % inhibition. Mean and standard error or median and interquartiles were computed for the different treatment groups and experimental conditions, i.e. drug timing and day of assessment. Groups were compared using parametric or non-parametric ANOVAs, respectively.

On the set-up of data set [9]: method as in PMID 20977192. The conditions noted are these: 24 h incubation at 37°C, pH 7.4 ref 12; cited from earlier work.
A short description of data set [10]: Tolerability (survival, body weight) in Hepa1–6-bearing C57Bl/6 mice (Experiments 3 and 4). It counts as in vivo. The conditions noted are these: Experiment 4 (FY26⋅Cl). As to the method:
as §1, §2, §3
Experiment 3 aimed at assessing the efficacy and tolerability of the more soluble formulation of FY26⋅Cl in Hepa1–6-bearing C57Bl/6 mice. The mice were randomized to receive vehicle or FY26⋅Cl, at a cumulative dose of 60 mg/kg. Treated mice received ip injections of 20 mg/kg of FY26⋅Cl at ZT6 12, 14, and 17 days after tumour inoculation. Control mice received ip vehicle on the same days.
Experiment 4 aimed at confirming efficacy and optimizing timing and scheduling of the same cumulative dose of 60 mg/kg of FY26⋅Cl. Mice were randomized to receive either vehicle or FY26⋅Cl as four injections of 15 mg/kg at ZT6 or ZT18 on days 11, 14, 17, and 21.
For Experiments 1 and 2, FY26⋅PF6 was diluted in the vehicle, composed of 1% Tween 80 (Sigma-Aldrich, Gillingham, UK), 5% DMSO (Corning, New York, USA) and 94% of 0.9% saline (Prep room, Life Sciences, University of Warwick) under laminar flow. FY26⋅PF6 concentration was confirmed with ICP-MS. For Experiments 3–5, using FY26⋅Cl, a stock solution of 50 mg/ml FY26⋅Cl was prepared in 0.9% saline on the day of injection and diluted as required; the vehicle consisted of 0.9% saline.
as §5

Data set [11] relates to Hepa1–6-Per2-luc hepatocarcinoma tumours. The experiment in a line: Tumour volume after a single ip dose (Experiment 5). The following applies: single ip dose 5, 10 or 20 mg/kg (FY26⋅Cl). It counts as in vivo, C57Bl/6 mice. How it is done:
as §2, §3
Experiment 5 determined FY26⋅Cl uptake in mouse tumour and liver. Hepa1–6-bearing mice were randomly assigned to either treatment or control groups. They received a single ip injection of 5, 10, or 20 mg/kg of FY26⋅Cl or 0.1 M PBS (vehicle) at ZT6 (Table 1). The mice from pre-set subgroups were culled at 6, 24, or 48 h after injection. […]

Details of data set [12]: method as in PMID 9144445. The following applies: cisplatin in BSO-treated mice ref 36; cited from earlier work.

On to `CN(C)c1ccc(N=Nc2ccccn2)cc1.Cc1ccc(C(C)C)cc1.F[P-](F)(F)(F)(F)F.[I-].[Os+2]` [FY26⋅PF6, [Os^II(ɳ^6-p-cym)(PhAzPy-NMe2)I]PF6], for which the “tumour inhibition efficacy ranking” value was “intermediate” in data set [1] (Experiment 1, 40 mg/kg/injection ip at ZT6 every other day); “least” in data set [1] (Experiment 1, 60 mg/kg/injection ip at ZT6 every other day); “highest” in data set [1] (Experiment 1, 80 mg/kg/injection ip at ZT6 every other day). For the same molecule, the “efficacy according to dosing time” value in [1] (Experiment 2, 50 mg/kg/injection ip, ZT6 versus ZT18) is reported as “slightly better efficacy at ZT6”. Besides, the tumour growth result in data set [1] (Experiment 2, 50 mg/kg/injection ip, after the sixth dose) is “slowed down transiently”. Also, the maximum aqueous solubility in [2] was 0.0201 (±0.0007) mM. In addition, the ROS induction result with A2780 cells is given as “did induce an increase in ROS”. Besides, in the data set on A2780 cells, the induction of apoptosis result is given as “did not induce apoptosis”. In data set [3] (Experiment 1, 80 mg/kg/injection, all mice euthanized after up to five injections (cumulative 400 mg/kg)), the “toxicity of the higher dose” value is recorded as “clearly too toxic”. In addition, the “body weight loss dose–response” value in data set [3] (Experiment 1, 40, 60 or 80 mg/kg/injection ip at ZT6) is “linear dose–response relation”. Besides, the “body-weight loss at ZT6 as compared to ZT18” value in data set [3] (Experiment 2, 50 mg/kg/injection ip) is given as “less pronounced”. In [4], the “activity relative to cisplatin” value is on record as 49 times. Besides, the “variation of IC50 according to timing of in vitro drug exposure” value in the data set with Hepa1–6 cells is 40%. Besides, the “selectivity towards A2780 over MRC-5 fibroblasts” value in [5] was “up to 64 times”. In [6], the “effect on xenograft growth” value was “capable of delaying the growth”.

In the case of `CN(C)c1ccc(N=Nc2ccccn2)cc1.Cc1ccc(C(C)C)cc1.[I-].[Os+2]` [FY26, [Os^II(ɳ^6-p-cym)(PhAzPy-NMe2)I]^+], the best-tolerated dosing time entry in data set [7] is on record as “near the middle of the light span”. This molecule had a body weight changes in data set [8] of less than 5%. The “hydrolysis in aqueous solution” value in [9] is reported as “does not readily hydrolyse”. Further, the “body-weight loss according to dosing time” value in data set [10] (15 mg/kg ip × 4, ZT18 versus ZT6) was “clearly worse at ZT18”. The survival rate in [10] (15 mg/kg ip × 4 at ZT6) was 60%; in [10] (15 mg/kg ip × 4 at ZT18), 30%. Further, in data set [11], the “changes in tumour volumes” value was “No changes”.

`CN(C)c1ccc(N=Nc2ccccn2)cc1.Cc1ccc(C(C)C)cc1.[I-].[I-].[Os+2]` [FY26⋅I]: the maximum aqueous solubility in data set [2] is 1.29 (±0.01) mM.

For `N.N.[Cl][Pt][Cl]` [cisplatin], in [12], the “reduction in average survival rate” value is 5.7 fold.

These data come from article PMC7853623, “Dose- and time-dependent tolerability and efficacy of organo-osmium complex FY26 and its tissue pharmacokinetics in hepatocarcinoma-bearing mice” (Metallomics: Integrated Biometal Science, 2020).
